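48-hour exposure; five concentrations; linearly interpolated endpoints. The concentration for 50% growth inhibition is given as GI50.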 Calls of active or inactive are those of the source. Rule as the data show it: active = GI50 up to about 1.1 µM and inactive = higher.
Legend:
Test in all cases: NCI anticancer screen, dose series, 48 h
786-0 = test system: 786-0
A498 = test system: A498
A549 = test system: A549
ACHN = test system: ACHN
CAKI-1 = test system: CAKI-1
CCRF-CEM = test system: CCRF-CEM
COLO 205 = test system: COLO 205
DLD-1 = test system: DLD-1
DMS-114 = test system: DMS-114
DMS-273 = test system: DMS-273
EKVX = test system: EKVX
HCC 2998 = test system: HCC 2998
HCT-116 = test system: HCT-116
HL-60 = test system: HL-60
HOP-18 = test system: HOP-18
HOP-62 = test system: HOP-62
HT-29 = test system: HT-29
IGROV-1 = test system: IGROV-1
K562 = test system: K562
KM-20L2 = test system: KM-20L2
KM12 = test system: KM12
LOX IMVI = test system: LOX IMVI
LXFL 529 = test system: LXFL 529
M14 = test system: M14
M19-MEL = test system: M19-MEL
MOLT-4 = test system: MOLT-4
Malme-3M = test system: Malme-3M
NCI-H226 = test system: NCI-H226
NCI-H23 = test system: NCI-H23
NCI-H460 = test system: NCI-H460
NCI-H522 = test system: NCI-H522
OVCAR-5 = test system: OVCAR-5
OVCAR-8 = test system: OVCAR-8
RPMI-8226 = test system: RPMI-8226
SF-268 = test system: SF-268
SF-295 = test system: SF-295
SF-539 = test system: SF-539
SK-MEL-5 = test system: SK-MEL-5
SK-OV-3 = test system: SK-OV-3
SN12C = test system: SN12C
SNB-19 = test system: SNB-19
SNB-75 = test system: SNB-75
SNB-78 = test system: SNB-78
SR = test system: SR
SW-620 = test system: SW-620
TK-10 = test system: TK-10
U-251 = test system: U-251
UACC-257 = test system: UACC-257
UACC-62 = test system: UACC-62
UO-31 = test system: UO-31
XF498 = test system: XF498
HCT-15 = test system: HCT-15
HOP-92 = test system: HOP-92
OVCAR-3 = test system: OVCAR-3
OVCAR-4 = test system: OVCAR-4
RXF 393 = test system: RXF 393
SK-MEL-28 = test system: SK-MEL-28
SK-MEL-2 = test system: SK-MEL-2

Measured: GI50

CC(C)NCCCC(C)Nc1ccnc2ccc3nn(C)nc3c12 (stereo not given)
inactive: 786-0 44.2 µM | A498 > 100 µM | A549 62.1 µM | ACHN 61.2 µM | CAKI-1 60.5 µM | CCRF-CEM 41.9 µM | COLO 205 28.3 µM | DLD-1 71.9 µM | DMS-114 61.7 µM | DMS-273 41.7 µM | EKVX > 100 µM | HCC 2998 57.9 µM | HCT-116 34.8 µM | HL-60 42.4 µM | HOP-18 9.4 µM | HOP-62 52.7 µM | HT-29 37.8 µM | IGROV-1 > 100 µM | K562 33.2 µM | KM-20L2 > 10 µM | KM12 50.8 µM | LOX IMVI 33.6 µM | LXFL 529 57.1 µM | M14 38.8 µM | M19-MEL 84.9 µM | MOLT-4 35 µM | Malme-3M 63 µM | NCI-H226 31.8 µM | NCI-H23 > 100 µM | NCI-H460 38.6 µM | NCI-H522 > 100 µM | OVCAR-5 75.7 µM | OVCAR-8 43.6 µM | RPMI-8226 74.8 µM | SF-268 96.8 µM | SF-295 34.6 µM | SF-539 83.2 µM | SK-MEL-5 38.5 µM | SK-OV-3 > 100 µM | SN12C 61.8 µM | SNB-19 > 100 µM | SNB-75 > 100 µM | SNB-78 43.1 µM | SR 40.1 µM | SW-620 38.5 µM | TK-10 > 100 µM | U-251 > 100 µM | UACC-257 74.5 µM | UACC-62 > 100 µM | UO-31 33.7 µM | XF498 > 100 µM

O=C(O)Cc1ccccc1CCc1ccccc1Cl
> 100 µM: HCT-15
inactive: 786-0 > 100 µM | A498 > 100 µM | A549 > 100 µM | CAKI-1 > 100 µM | CCRF-CEM > 100 µM | COLO 205 > 100 µM | DLD-1 > 100 µM | DMS-273 > 100 µM | EKVX 96.4 µM | HCC 2998 > 100 µM | HCT-116 > 100 µM | HL-60 > 100 µM | HOP-18 50.1 µM | HOP-92 > 100 µM | HT-29 > 100 µM | IGROV-1 > 100 µM | K562 > 100 µM | KM-20L2 > 100 µM | KM12 > 100 µM | LOX IMVI > 100 µM | LXFL 529 > 100 µM | M14 > 100 µM | M19-MEL 95.5 µM | MOLT-4 > 100 µM | Malme-3M > 100 µM | NCI-H226 68.1 µM | NCI-H23 > 100 µM | NCI-H460 > 100 µM | NCI-H522 > 100 µM | OVCAR-3 53.2 µM | OVCAR-4 > 100 µM | OVCAR-5 > 100 µM | OVCAR-8 > 100 µM | RPMI-8226 > 100 µM | RXF 393 > 100 µM | SF-268 > 100 µM | SF-295 > 100 µM | SF-539 > 100 µM | SK-MEL-28 > 100 µM | SK-MEL-2 30.8 µM | SK-MEL-5 > 100 µM | SK-OV-3 > 100 µM | SN12C > 100 µM | SNB-19 > 100 µM | SNB-75 93.8 µM | SNB-78 > 100 µM | SR > 100 µM | SW-620 > 100 µM | TK-10 > 100 µM | U-251 > 100 µM | UACC-257 > 100 µM | UO-31 > 100 µM | XF498 > 100 µM

— ChEMBL document CHEMBL1201862, “PubChem BioAssay data set” (2004)
